Where no end group is shown, it is not given here.
B1: ^99mTc-HYNIC-Duramycin (peptide)
peptide: CKQSCSFGPFTFVCDGNTK
modifications: thioether bonds between positions 1-18, 4-14 and 5-11; amide bond between positions 6 and 19; one HYNIC (6-hydrazinopyridine-3-carboxylic acid) moiety on either Cys-1 or Lys-2, chelating 99mTc with tricine and TPPTS co-ligands
notes: Lantibiotic peptide, cross-linked; also called 99mTc-Duramycin; radiolabeled Duramycin

Columns and labels:
[1] = Cysteine challenge stability test; assay type: physicochemical; settings: cysteine-to-Duramycin ratio of 100:1
Experimental: HPLC method 2. Jupiter C18 column (90 Å pore size, 250×4.6 mm) was used with a buffered mobile phase system consisting of phosphate buffer (10 mM sodium phosphate, pH 6.7) and acetonitrile at a flow rate of 1.0 ml/min at room temperature. A baseline of 5 min at 90% buffer A (phosphate buffer, pH6.7) and 10% buffer B (acetonitrile) was followed by a linear gradient to 10% buffer A and 90% buffer B in 30 min. The level of radioactivity in the HPLC elute was monitored by gamma counting at an energy window of 140±15 keV.
HYNIC-Duramycin was labeled with ^99mTc using the tricine-phosphine co-ligand system. Specifically, 15 μg of HYNIC-Duramycin was mixed with 40 mg of tricine, 1 mg of TPPTS and 20 μg SnCl2 in 0.8 ml at pH 5.3. The labeling was initiated with the addition of about 1 mCi of ^99mTc. The incubation was allowed to proceed for 40 min at room temperature. The final radiopharmaceutical, ^99mTc-HYNIC-Duramycin, was analyzed and purified using HPLC method 2. After purification, acetonitrile was removed by evaporation under nitrogen, and ^99mTc-HYNIC-Duramycin was reconstituted in saline for usage. ^99mTc-HYNIC-Duramycin^1 was synthesized in the same fashion. For stability tests, cysteine challenge was carried out at a cysteine-to-^99mTc-Duramycin ratio of 100 to 1, in 0.01 mM phosphate buffer (pH 6.8) for 2 hr at room temperature. The sample was analyzed with radioHPLC (method 2).

[2] = liposomes; bind PtdE at equal-molar ratio; cited from earlier work
[3] = literature (McNulty 2003); cited from earlier work
[4] = humans, including patients with Cystic Fibrosis; cited from earlier work
[5] = target: rat serum albumin (rat, UniProt P02770 25-608); assay: radioHPLC analysis of the tracer in the presence of rat serum albumin
rat serum albumin, sequence (P02770 25-608 limits assumed): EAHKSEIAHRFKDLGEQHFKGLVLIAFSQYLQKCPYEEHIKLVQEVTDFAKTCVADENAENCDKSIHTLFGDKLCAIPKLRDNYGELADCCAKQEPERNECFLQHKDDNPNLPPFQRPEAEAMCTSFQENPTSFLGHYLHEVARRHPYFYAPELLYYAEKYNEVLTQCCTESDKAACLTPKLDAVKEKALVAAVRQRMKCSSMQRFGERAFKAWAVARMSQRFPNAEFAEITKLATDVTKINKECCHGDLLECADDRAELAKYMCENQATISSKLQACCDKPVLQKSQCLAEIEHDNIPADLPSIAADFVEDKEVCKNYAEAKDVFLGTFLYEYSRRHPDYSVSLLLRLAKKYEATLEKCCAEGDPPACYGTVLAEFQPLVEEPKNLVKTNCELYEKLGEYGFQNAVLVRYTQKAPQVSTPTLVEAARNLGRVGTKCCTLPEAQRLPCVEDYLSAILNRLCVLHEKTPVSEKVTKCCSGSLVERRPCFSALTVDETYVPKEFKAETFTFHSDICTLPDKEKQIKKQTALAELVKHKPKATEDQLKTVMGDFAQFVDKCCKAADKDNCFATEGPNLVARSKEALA

Row | Molecule | radioactivity associated with the peptide diminished/reduced in cysteine challenge [1] | dissociation constant [2] | hepatic retention [3] | toxicity and immunogenicity in clinical testing [4] | binding result [5]
1 | 19-amino acid peptide produced by Streptoverticillium cinnamoneus, CKQSCSFGPFTFVCDGNTK (SEQ ID NO 1), binds PtdE [Duramycin] | 90% | nanomolar range | retained for an extended duration (e.g., many days) in the liver without complete washout | lack of significant toxicity and immunogenicity | 
2 | homolog of Duramycin with Arg replacing Lys at position two, CRQSCSFGPFTFVCDGNTK (SEQ ID NO 2) (not fully specified (bridges); ends and bridges not checked; also: lanthionine bridges, places not given here; listed as Streptoverticillium cinnamoneus) [Cinnamycin] |  | nanomolar range |  |  | 
3 | B1 |  |  |  |  | no binding
